Test results published in patent publication US20050239854A1, “Body weight gain inhibitors” (priority 1999, published 2005).

Assay: Body weight gain-reducing action in KKAy mice
Conditions: female KKAy mice; for % control (blood glucose level): in admixture with the feed for 4 days, blood glucose relative to own control group = 100

| SMILES | effect on body weight (in words) (4 days, dose that reduced the blood glucose level to 50-58%) | % control (blood glucose level) [%] |
| --- | --- | --- |
| CN(CCOc1ccc(CC2SC(=O)NC2=O)cc1)c1ccccn1 (stereo not drawn) [rosiglitazone] | significantly increased the body weight | 58 |
| Cc1oc(-c2ccccc2)nc1COc1ccc(CO/N=C(\CCC(=O)O)c2ccccc2)cc1 [compound of Production Example 3, E-4-[4-(5-methyl-2-phenyl-4-oxazolylmethoxy)benzyloxyimino]-4-phenylbutyric acid] |  | 50 |
